{"source": "paper PMC11510329", "about": "“Molecular Networking, Docking, and Biological Evaluation of Licarin A from Myristica fragrans as a Potential Cancer Chemopreventive Agent” (Molecules, 2024)", "key": {"[1]": {"tested_on": "HT-29 human colon cancer cells", "details": "nanomolar range; cited from earlier work"}, "[2]": {"tested_on": "Hepa1c1c7 mouse hepatoma cells", "experiment": "Cell oxidative stress real-time dose–response assay (ROS, DCFH-DA)", "format": "cell-based", "method": "A reactive oxygen species (ROS) assay was performed following a previously described procedure. The generated intracellular levels of ROS were measured using the fluorescent probe 2′,7′-dichlorodihydrofluorescein diacetate (DCFH-DA). Hepa1c1c7 mouse hepatoma cells were seeded in a 96-well plate, treated with 1, 2, or the positive control rocaglamide, followed by 5 h incubation at 37 °C with 5% CO2. Subsequently, cells were incubated with H2O2 (1.25 mM) and FeSO4 for 30 min at 37 °C. Later, the fluorescent probe DCFH-DA was added to determine intracellular ROS. Fluorescence was measured using a FLUOstar Optima fluorescence plate reader (BMG Labtech Inc., Durham, NC, USA) at an excitation wavelength of 485 nm and emission wavelength of 530 nm. All treatments performed in triplicate were representative of at least two different experiments."}, "zebrafish (Danio rerio)": {"tested_on": "zebrafish (Danio rerio)", "experiment": "Toxicity assay in zebrafish", "details": "for morphological changes / developmental abnormalities: tamoxifen 50 μM at 48 h, 1 100 μM at 48 h, 2 100 μM at 24 h", "method": "Animals were provided by the Department of Neuroscience at The Ohio State University (OSU) (OSU IACUC-approved animal protocol number 2014A00000006-R1-AR1). Zebrafish embryos were housed in aquaculture water at 28 °C with a 14 h/10 h light/dark cycle. After 24 h post fertilization (hpf), groups of random embryos were exposed to different concentrations (0, 50, or 100 μM, n = 25) for 24 and 48 h. Then, images of the zebrafish were taken using an Axiovert 40 CFL Zeiss microscope and ProgRes C10 plus camera. Morphological changes in zebrafish development were determined and recorded."}, "[3]": {"tested_on": "DU-145 prostate cancer cells", "experiment": "Cell viability crystal violet assay", "format": "cell-based, Homo sapiens", "details": "rocaglamide at concentrations higher than 6 μM", "method": "The cell viability of DU-145 prostate cancer cells was evaluated after treatment with 1, 2, and the positive control rocaglamide using the protocol from a Phospho-NF-kappaBp65 (S468 + S536) and Total In-Cell ELISA Kit (ab207482) (Abcam Inc., Waltham, MA, USA), after initial PhosphoNF-κBp65 translocation steps (Section 4.11)."}, "[4]": {"experiment": "SRB cell cytotoxicity assay", "format": "cell-based, Homo sapiens", "details": "human, DU-145 prostate cancer cells; DU-145; Supplementary Figure S7; read-out: cytotoxic concentration in vitro (IC50)", "method": "(§1) The antiproliferative effects of 1, the chemopreventive control 2, and the positive control paclitaxel were measured using a sulforhodamine B (SRB) cytotoxicity assay. Briefly, DU-145 prostate cancer cells (5 × 10^4 cells/well) were seeded in a 96-well plate overnight. Then, the cells were treated at different concentrations ranging from 0 to 150 μM with each test compound for 24, 48, and 72 h (Supplementary Figure S7). After being treated, the cells were incubated with cold trichloroacetic acid (20%, 30 min), washed with tap water, stained with SRB (0.4%, 30 min), and washed subsequently with acetic acid (1%). Finally, the unbound dye was solubilized using 200 μL of Tris-base (10 mM) and the absorbance read at 515 nm using a FLUOstar Optima microplate reader (BMG Labtech Inc., Durham, NC, USA). The percent inhibition was determined by using the formula provided in the prior publication."}, "[5]": {"tested_on": "DU-145 prostate cancer cells", "experiment": "SRB cell cytotoxicity assay", "format": "cell-based, Homo sapiens", "details": "DU-145 human prostate cancer cells", "method": "as §1"}, "[6]": {"tested_on": "phosphoNF-κBp65 in DU-145 prostate cancer cells", "experiment": "PhosphoNF-κBp65 assay (In-Cell ELISA)", "format": "cell-based, Homo sapiens", "method": "PhosphoNF-κBP65 phosphorylation levels were evaluated using the protocol from an Abcam Phospho-NF-kappaBp65 ([…] + […]) + Total In-Cell ELISA Kit (ab207482) (Abcam Inc., Waltham, MA, USA). The effects of 1, the natural product chemopreventive positive control 2, and a rocaglamide positive control in the PhosphoNF-κBp65 assay activity were measured using a FLUOstar Optima plate reader. DU-145 or Hepa1c1c7 cells (5 × 10^4 cells/well) were seeded in a white 96-well plate and treated (0-150 μM) for 5 h. Afterwards, luminescence was measured using a FLUOstar Optima plate reader."}}}
{"compound": "C/C=C/c1cc(OC)c2c(c1)[C@@H](C)[C@H](c1cc(OC)c(OC)c(OC)c1)O2", "note": "[licarin C]", "values": [{"measurement": "cytotoxicity", "setting": "[1]", "value": "potently cytotoxic"}]}
{"compound": "O=C(/C=C/c1ccc(O)cc1)c1ccc(O)cc1O", "note": "[compound 2, Isoliquiritigenin, reference compound]", "values": [{"measurement": "duration of reduction in cellular stress (time until activity degrades)", "setting": "[2]; 48 nM, assay duration 60 min", "value": 30, "unit": "min"}, {"measurement": "% of hatching", "setting": "zebrafish (Danio rerio); 24 h exposure, tamoxifen 50 μM, 1 and 2 100 μM, mean ± SEM", "value": 100, "unit": "%"}, {"measurement": "morphological changes / developmental abnormalities", "setting": "zebrafish (Danio rerio)", "value": "curved spines or shortened tails"}]}
{"compound": "COc1ccc([C@@]23Oc4cc(OC)cc(OC)c4[C@]2(O)[C@H](O)[C@H](C(=O)N(C)C)[C@H]3c2ccccc2)cc1", "note": "[Rocaglamide, reference compound]", "values": [{"measurement": "cell viability (crystal violet)", "setting": "[3]", "value": "maintained the same level of cell viability"}]}
{"compound": "C/C=C/c1cc(OC)c2c(c1)[C@H](C)[C@@H](c1ccc(O)c(OC)c1)O2", "note": "[compound 1, licarin A]", "values": [{"measurement": "effective concentration for oxidative control", "setting": "[2]; Hepa1c1c7", "value": 48, "unit": "nM"}, {"measurement": "% survival", "setting": "zebrafish (Danio rerio); 48 h exposure, tamoxifen 50 μM, 1 and 2 100 μM, mean ± SEM", "value": 100, "unit": "%"}, {"measurement": "morphological changes / developmental abnormalities", "setting": "zebrafish (Danio rerio)", "value": "lack of morphological changes"}, {"measurement": "cell viability (crystal violet)", "setting": "[3]", "value": "remained alive and proliferated, but in a controlled manner"}, {"measurement": "IC50", "setting": "[4]", "value": 100, "unit": "µM"}, {"measurement": "growth inhibitory activity", "setting": "[5]", "value": "did not produce any discernible growth inhibitory activity"}, {"measurement": "effective concentration for inducing NF-κB phosphorylation", "setting": "[6]", "value": 9.6, "unit": "nM"}]}
